According to patent publication US20080161288A1, “COMPOUNDS” (Pfizer Inc., priority 2006, published 2008):

Key:
[1] = target: T1, porcine beta-2 adrenoceptor (Sus scrofa, UniProt Q28997); assay: cAMP assay in CHO cells transfected with the porcine beta-2 adrenoceptor; type: cell-based; conditions: cAMP (DiscoveRx Hit Hunter cAMP II) in CHO cells transfected with porcine beta-2 adrenoceptor, 30 minutes with compound, 0.5 mM IBMX
T1 construct: expressed in transfected cells; host or cells: CHO cells
T1 sequence (Q28997 whole entry): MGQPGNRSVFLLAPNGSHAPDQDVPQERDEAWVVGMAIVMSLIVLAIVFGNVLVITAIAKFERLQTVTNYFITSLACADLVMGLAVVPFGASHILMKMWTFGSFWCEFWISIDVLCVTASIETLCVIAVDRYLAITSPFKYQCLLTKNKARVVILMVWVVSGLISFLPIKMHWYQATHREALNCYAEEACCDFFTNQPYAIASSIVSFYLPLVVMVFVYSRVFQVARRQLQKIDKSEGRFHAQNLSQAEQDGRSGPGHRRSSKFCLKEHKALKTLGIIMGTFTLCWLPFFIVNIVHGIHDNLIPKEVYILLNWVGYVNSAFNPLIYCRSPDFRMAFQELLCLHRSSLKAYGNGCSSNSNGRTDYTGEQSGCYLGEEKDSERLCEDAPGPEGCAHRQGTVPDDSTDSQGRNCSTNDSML
Protocol: (§1) CHO cells transfected with the bovine or porcine beta-2 adrenceptors were maintained in culture in DMEM/HAMS F12+10% FBS+2 mM glutamine+500 μg/ml geneticin (for the porcine receptor the medium was supplement with 1.5 mM HEPES) at 37° C. with a 5% CO2 atmosphere.
(§2) Cells were plated into 96 well viewplates in medium and incubated overnight at 37° C. with a 5% CO2 atmosphere. The cells were pre-incubated with 0.5 mM IBMX in PBS for 30 minutes prior to incubation with increasing concentrations of experimental compound (5×10^−12 to 10^−5 M) for 30 minutes at 37° C. with a 5% CO2 atmosphere. At the end of the incubation time the compound was removed and the cells assayed for cAMP using the DiscoveRx Hit Hunter cAMP II™ assay kit.
(§3) Duplicate samples were run for each experimental compound and the data generated was analysed using EC50 analysis software in Graphpad Prism.

[2] = target: T2, bovine beta-2 adrenoceptor (Bos taurus, UniProt Q28044); assay: cAMP assay in CHO cells transfected with the bovine beta-2 adrenoceptor; type: cell-based; conditions: cAMP (DiscoveRx Hit Hunter cAMP II) in CHO cells transfected with bovine beta-2 adrenoceptor, 30 minutes with compound, 0.5 mM IBMX
T2 construct: expressed in transfected cells; host or cells: CHO cells
T2 sequence (Q28044 whole entry): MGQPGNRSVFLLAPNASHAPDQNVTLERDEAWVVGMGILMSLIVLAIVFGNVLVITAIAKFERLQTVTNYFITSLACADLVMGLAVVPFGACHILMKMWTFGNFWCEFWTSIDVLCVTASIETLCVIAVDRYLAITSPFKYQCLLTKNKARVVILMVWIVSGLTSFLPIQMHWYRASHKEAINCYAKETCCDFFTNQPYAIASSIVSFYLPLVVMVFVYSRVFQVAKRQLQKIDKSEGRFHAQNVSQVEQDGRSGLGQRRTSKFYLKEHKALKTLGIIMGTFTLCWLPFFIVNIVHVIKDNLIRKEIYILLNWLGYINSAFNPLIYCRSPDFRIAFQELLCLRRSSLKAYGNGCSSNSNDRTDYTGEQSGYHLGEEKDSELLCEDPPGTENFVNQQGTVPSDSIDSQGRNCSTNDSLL
Protocol: as §1, §2, §3

Row | EC50 [1] | EC50 [2] | Structure (SMILES)
1 | 1.8 nM | 1.5 nM | CC(CCc1cccc(F)c1O)N[C@@H]1CCn2c(=O)[nH]c3cccc(c32)[C@H]1O (single isomer, unassigned) [Example 28a]
2 | 1.7 nM | 0.8 nM | CC(CCc1cc(F)cc(F)c1O)N[C@@H]1CCn2c(=O)[nH]c3cccc(c32)[C@H]1O (mixture of isomers) [Example 10b, 6-{[3-(3,5-Difluoro-2-hydroxyphenyl)-1-methylpropyl]amino}-7-hydroxy-4,5,6,7-tetrahydroimidazo[4,5,1-jk][1]benzazepin-2(1H)-one]
3 | 385 nM | 428 nM | CC(CC(C)(C)c1ccccc1)N[C@@H]1CCn2c(=O)[nH]c3cccc(c32)[C@H]1O (single isomer, unassigned) [Example 14a, 6-[(1,3-Dimethyl-3-phenylbutyl)amino]-7-hydroxy-4,5,6,7-tetrahydroimidazo[4,5,1-jk][1]benzazepin-2(1H)-one]
4 | 4.2 nM | 3.4 nM | CC(CC(C)(C)c1ccccc1)N[C@@H]1CCn2c(=O)[nH]c3cccc(c32)[C@H]1O (single isomer, unassigned) [Example 14b, 6-[(1,3-Dimethyl-3-phenylbutyl)amino]-7-hydroxy-4,5,6,7-tetrahydroimidazo[4,5,1-jk][1]benzazepin-2(1H)-one]
5 | 2.9 nM | 1.6 nM | CC(CCc1cccc(Cl)c1O)N[C@@H]1CCn2c(=O)[nH]c3cccc(c32)[C@H]1O (single isomer, unassigned) [Example 5b, 6-{[3-(3-Chloro-2-hydroxyphenyl)-1-methylpropyl]amino}-7-hydroxy-4,5,6,7-tetrahydroimidazo[4,5,1-jk][1]benzazepin-2(1H)-one]
6 | 473 nM | 307 nM | CC(CCc1cccc(Cl)c1O)N[C@@H]1CCn2c(=O)[nH]c3cccc(c32)[C@H]1O (single isomer, unassigned) [Example 5a, 6-{[3-(3-Chloro-2-hydroxyphenyl)-1-methylpropyl]amino}-7-hydroxy-4,5,6,7-tetrahydroimidazo[4,5,1-jk][1]benzazepin-2(1H)-one]
7 | 108 nM | 456 nM | CC(CCc1ccc2c(c1)CCO2)N[C@@H]1CCn2c(=O)[nH]c3cccc(c32)[C@H]1O (single isomer, unassigned) [Example 3b, 6-{[3-(2,3-Dihydro-1-benzofuran-5-yl)-1-methylpropyl]amino}-7-hydroxy-4,5,6,7-tetrahydroimidazo[4,5,1-jk][1]benzazepin-2(1H)-one]
8 | 172 nM | 200 nM | COc1cccc(CCC(C)N[C@@H]2CCn3c(=O)[nH]c4cccc(c43)[C@H]2O)c1O (single isomer, unassigned) [Example 8a, 7-hydroxy-6-{[3-(2-hydroxy-3-methoxyphenyl)-1-methylpropyl]amino}-4,5,6,7-tetrahydroimidazo[4,5,1-jk][1]benzazepin-2(1H)-one]

Further lines, the compound ahead of its results:

Row | Structure (SMILES) | EC50 [1] | EC50 [2]
9 | CC(CCc1ccc(O)cc1)N[C@@H]1CCn2c(=O)[nH]c3cccc(c32)[C@H]1O (single isomer, unassigned) [Example 2c, 7-Hydroxy-6-{[3-(4-hydroxyphenyl)-1-methylpropyl]amino}-4,5,6,7-tetrahydroimidazo[4,5,1-jk][1]benzazepin-2(1H)-on] | 2.9 nM | 13.1 nM
10 | CCS(=O)(=O)Nc1ccccc1CCC(C)NC1CCn2c(=O)[nH]c3cccc(c32)C1O (single isomer, unassigned) [Example 56, N-{2-[3-{[7-Hydroxy-2-oxo-1,2,4,5,6,7-hexahydroimidazo[4,5,1-jk][1]benzazepin-6-yl]amino}butyl]phenyl}ethanesulfonamide] | 2.8 nM | 5.2 nM
11 | CC(CCc1ccc(F)cc1)N[C@@H]1CCn2c(=O)[nH]c3cccc(c32)[C@H]1O (mixture of isomers) [Example 23, 6-{[3-(4-Fluorophenyl)-1-methylpropyl]amino}-7-hydroxy-4,5,6,7-tetrahydroimidazo[4,5,1-jk][1]benzazepin-2(1H)-one] | 10.5 nM | 15.8 nM
12 | CC(CCc1ccc(C(=O)NCC(F)(F)F)cc1)N[C@@H]1CCn2c(=O)[nH]c3cccc(c32)[C@H]1O (single isomer, unassigned) [Example 52, 4-[-3-{[7-Hydroxy-2-oxo-1,2,4,5,6,7-hexahydroimidazo[4,5,1-jk][1]benzazepin-6-yl]amino}butyl]-N-(2,2,2-trifluoroethyl)benzamide] | 38.4 nM | 7.7 nM
13 | CC(CCc1cccc(C(N)=O)c1)NC1CCn2c(=O)[nH]c3cccc(c32)C1O (single isomer, unassigned) [Example 66, 3-[3-{[7-Hydroxy-2-oxo-1,2,4,5,6,7-hexahydroimidazo[4,5,1-jk][1]benzazepin-6-yl]amino}butyl]benzamide] | 141 nM | 137 nM
14 | CC(CCc1ccc(O)c(F)c1)NC1CCn2c(=O)[nH]c3cccc(c32)C1O (single isomer, unassigned) [Example 36, 6-{[3-(3-Fluoro-4-hydroxyphenyl)-1-methylpropyl]amino}-7-hydroxy-4,5,6,7-tetrahydroimidazo[4,5,1-jk][1]benzazepin-2(1H)-one] | 2.2 nM | 1.4 nM
15 | Cc1cccc(CCC(C)N[C@@H]2CCn3c(=O)[nH]c4cccc(c43)[C@H]2O)c1O (mixture of isomers) [Example 17, 7-Hydroxy-6-{[3-(2-hydroxy-3-methylphenyl)-1-methylpropyl]amino}-4,5,6,7-tetrahydroimidazo[4,5,1-jk][1]benzazepin-2(1H)-one] | 3 nM | 3.3 nM
16 | CC(CCc1cc(F)cc(Cl)c1O)N[C@@H]1CCn2c(=O)[nH]c3cccc(c32)[C@H]1O (mixture of isomers) [Example 27, 6-{[3-(3-Chloro-5-fluoro-2-hydroxyphenyl)-1-methylpropyl]amino}-7-hydroxy-4,5,6,7-tetrahydroimidazo[4,5,1-jk][1]benzazepin-2(1H)-one] | 2.2 nM | 0.6 nM
17 | CC(CCc1ccc(O)cc1)N[C@@H]1CCn2c(=O)[nH]c3cccc(c32)[C@H]1O (single isomer, unassigned) [Example 2a, 7-Hydroxy-6-{[3-(4-hydroxyphenyl)-1-methylpropyl]amino}-4,5,6,7-tetrahydroimidazo[4,5,1-jk][1]benzazepin-2(1H)-on] | 6.1 nM | 13.4 nM
18 | COC(=O)c1ccc(CC[C@@H](C)N[C@@H]2CCn3c(=O)[nH]c4cccc(c43)[C@H]2O)cc1 (single isomer, unassigned) [Example 70, Methyl 4-[3-{[7-hydroxy-2-oxo-1,2,4,5,6,7-hexahydroimidazo[4,5,1-jk][1]benzazepin-6-yl]amino}butyl]benzoate] | 6.2 nM | 8.2 nM
19 | CC(/C=C/c1ccccc1NS(C)(=O)=O)N[C@@H]1CCn2c(=O)[nH]c3cccc(c32)[C@H]1O (mixture of isomers) [Example 42, N-{2-[3-{[7-Hydroxy-2-oxo-1,2,4,5,6,7-hexahydroimidazo[4,5,1-jk][1]benzazepin-6-yl]amino}but-1-en-1-yl]phenyl}methanesulfonamide] | 104 nM | 258 nM
20 | CC(=O)Nc1ccccc1CCC(C)NC1CCn2c(=O)[nH]c3cccc(c32)C1O (single isomer, unassigned) [Example 63, N-{2-[3-{[7-Hydroxy-2-oxo-1,2,4,5,6,7-hexahydroimidazo[4,5,1-jk][1]benzazepin-6-yl]amino}butyl]phenyl}acetamide] | 40.8 nM | 39.2 nM
